How the values were obtained:
Assay type in all cases: cell-based
human TLR9 = target: T1, human TLR9 (Homo sapiens, UniProt Q9NR96); assay: TLR9 inhibition reporter assay (HEK-Blue, SEAP); settings: HEK-Blue cells overexpressing human TLR9, ligand ODN2006 200 nM, 22 hour incubation
T1 construct: host or cells: HEK-Blue cells
T1 sequence (Q9NR96 26-1032): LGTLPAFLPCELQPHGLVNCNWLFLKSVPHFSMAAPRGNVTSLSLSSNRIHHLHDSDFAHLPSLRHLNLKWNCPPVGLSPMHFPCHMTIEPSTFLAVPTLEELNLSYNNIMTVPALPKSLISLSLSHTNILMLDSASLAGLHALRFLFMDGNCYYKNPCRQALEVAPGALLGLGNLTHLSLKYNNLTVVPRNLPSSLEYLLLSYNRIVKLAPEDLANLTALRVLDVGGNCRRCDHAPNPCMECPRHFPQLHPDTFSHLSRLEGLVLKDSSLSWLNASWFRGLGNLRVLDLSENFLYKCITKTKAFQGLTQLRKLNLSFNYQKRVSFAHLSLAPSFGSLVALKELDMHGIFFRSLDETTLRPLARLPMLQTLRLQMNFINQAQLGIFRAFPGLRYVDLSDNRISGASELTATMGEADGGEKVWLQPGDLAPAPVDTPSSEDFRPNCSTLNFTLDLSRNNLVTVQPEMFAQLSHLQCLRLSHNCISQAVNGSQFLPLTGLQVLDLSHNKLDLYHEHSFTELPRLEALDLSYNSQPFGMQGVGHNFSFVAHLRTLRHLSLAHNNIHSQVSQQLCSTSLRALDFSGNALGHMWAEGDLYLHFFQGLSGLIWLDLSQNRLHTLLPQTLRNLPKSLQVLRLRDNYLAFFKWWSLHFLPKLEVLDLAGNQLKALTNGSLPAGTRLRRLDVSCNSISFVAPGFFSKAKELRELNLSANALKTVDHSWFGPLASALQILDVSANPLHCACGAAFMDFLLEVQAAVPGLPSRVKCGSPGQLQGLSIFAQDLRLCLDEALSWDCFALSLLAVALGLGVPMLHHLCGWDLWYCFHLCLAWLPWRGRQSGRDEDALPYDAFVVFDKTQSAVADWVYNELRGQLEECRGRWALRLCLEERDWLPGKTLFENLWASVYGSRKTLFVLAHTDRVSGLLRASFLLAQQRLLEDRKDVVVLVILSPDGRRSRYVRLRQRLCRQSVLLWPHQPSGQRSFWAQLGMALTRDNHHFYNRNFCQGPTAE
Protocol: (§1) TLR7/8/9 Inhibition Reporter Assays
(§2) HEK-Blue™-cells (Invivogen) overexpressing human TLR7. TLR8 or TLR9 receptors were used for screening inhibitors of these receptors using an inducible SEAP (secreted embryonic alkaline phosphatase) reporter gene under the control of the IFN-β minimal promoter fused to five NF-κB and AP-1-binding sites. Cells are seeded into Greiner 384 well plates (15000 cells per well) that are pre dispensed (by ECHO) with testing compounds in DMSO to yield a final dose response concentration range of 0.85 nM-50 μM. After a 60 minute compound pre-treatment in 37 degree incubator, the cells are then stimulated with a TLR7 ligand (gardiquimod at a final concentration of 2.5 μM), TLR8 ligand (R848 at a final concentration of 14.25 μM) or TLR9 ligand (ODN2006 at a final concentration of 200 nM) to activate NF-κB and AP-1 which induce the production of SEAP. After a 22 hour incubation at 37° C., 5% CO2, SEAP levels are determined with the addition of HEK-Blue™ Detection reagent (Invivogen), a cell culture medium that allows for detection of SEAP, according to manufacturer's specifications. The percent inhibition is determined as the % reduction in the HEK-Blue signal present in […].

human TLR7 = target: T2, human TLR7 (Homo sapiens, UniProt Q9NYK1); assay: TLR7 inhibition reporter assay (HEK-Blue, SEAP); settings: HEK-Blue cells overexpressing human TLR7, ligand gardiquimod 2.5 μM, 22 hour incubation
T2 construct: host or cells: HEK-Blue cells
T2 sequence (Q9NYK1 27-1049): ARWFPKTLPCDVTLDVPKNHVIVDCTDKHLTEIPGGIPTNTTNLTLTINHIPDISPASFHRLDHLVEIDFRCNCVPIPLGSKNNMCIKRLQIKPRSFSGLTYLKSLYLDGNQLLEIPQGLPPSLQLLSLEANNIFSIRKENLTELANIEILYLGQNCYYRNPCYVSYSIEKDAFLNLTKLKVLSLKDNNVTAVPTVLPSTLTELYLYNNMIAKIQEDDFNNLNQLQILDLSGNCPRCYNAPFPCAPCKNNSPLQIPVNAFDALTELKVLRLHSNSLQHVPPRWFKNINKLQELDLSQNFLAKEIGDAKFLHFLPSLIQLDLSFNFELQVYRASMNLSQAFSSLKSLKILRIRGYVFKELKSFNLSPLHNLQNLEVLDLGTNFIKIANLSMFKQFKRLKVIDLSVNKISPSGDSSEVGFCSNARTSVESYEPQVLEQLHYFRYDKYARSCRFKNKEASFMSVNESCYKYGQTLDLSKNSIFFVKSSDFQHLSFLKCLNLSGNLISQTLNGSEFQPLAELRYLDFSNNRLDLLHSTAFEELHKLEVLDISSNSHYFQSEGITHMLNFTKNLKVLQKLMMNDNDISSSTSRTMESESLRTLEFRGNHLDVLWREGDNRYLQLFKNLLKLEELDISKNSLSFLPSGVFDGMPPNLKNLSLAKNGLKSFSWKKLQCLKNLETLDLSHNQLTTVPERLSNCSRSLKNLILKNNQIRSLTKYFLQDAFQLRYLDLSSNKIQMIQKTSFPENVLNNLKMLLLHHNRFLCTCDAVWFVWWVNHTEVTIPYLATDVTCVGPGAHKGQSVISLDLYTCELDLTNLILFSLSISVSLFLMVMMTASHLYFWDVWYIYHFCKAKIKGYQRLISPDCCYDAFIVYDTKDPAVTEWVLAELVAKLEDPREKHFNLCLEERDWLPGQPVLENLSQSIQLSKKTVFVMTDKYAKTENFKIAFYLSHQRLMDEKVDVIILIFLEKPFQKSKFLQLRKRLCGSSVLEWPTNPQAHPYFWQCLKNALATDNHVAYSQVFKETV
Protocol: as §1, §2

human TLR8 = target: T3, human TLR8 (Homo sapiens, UniProt Q9NR97); assay: TLR8 inhibition reporter assay (HEK-Blue, SEAP); settings: HEK-Blue cells overexpressing human TLR8, ligand R848 14.25 μM, 22 hour incubation
T3 construct: host or cells: HEK-Blue cells
T3 sequence (Q9NR97 27-1041): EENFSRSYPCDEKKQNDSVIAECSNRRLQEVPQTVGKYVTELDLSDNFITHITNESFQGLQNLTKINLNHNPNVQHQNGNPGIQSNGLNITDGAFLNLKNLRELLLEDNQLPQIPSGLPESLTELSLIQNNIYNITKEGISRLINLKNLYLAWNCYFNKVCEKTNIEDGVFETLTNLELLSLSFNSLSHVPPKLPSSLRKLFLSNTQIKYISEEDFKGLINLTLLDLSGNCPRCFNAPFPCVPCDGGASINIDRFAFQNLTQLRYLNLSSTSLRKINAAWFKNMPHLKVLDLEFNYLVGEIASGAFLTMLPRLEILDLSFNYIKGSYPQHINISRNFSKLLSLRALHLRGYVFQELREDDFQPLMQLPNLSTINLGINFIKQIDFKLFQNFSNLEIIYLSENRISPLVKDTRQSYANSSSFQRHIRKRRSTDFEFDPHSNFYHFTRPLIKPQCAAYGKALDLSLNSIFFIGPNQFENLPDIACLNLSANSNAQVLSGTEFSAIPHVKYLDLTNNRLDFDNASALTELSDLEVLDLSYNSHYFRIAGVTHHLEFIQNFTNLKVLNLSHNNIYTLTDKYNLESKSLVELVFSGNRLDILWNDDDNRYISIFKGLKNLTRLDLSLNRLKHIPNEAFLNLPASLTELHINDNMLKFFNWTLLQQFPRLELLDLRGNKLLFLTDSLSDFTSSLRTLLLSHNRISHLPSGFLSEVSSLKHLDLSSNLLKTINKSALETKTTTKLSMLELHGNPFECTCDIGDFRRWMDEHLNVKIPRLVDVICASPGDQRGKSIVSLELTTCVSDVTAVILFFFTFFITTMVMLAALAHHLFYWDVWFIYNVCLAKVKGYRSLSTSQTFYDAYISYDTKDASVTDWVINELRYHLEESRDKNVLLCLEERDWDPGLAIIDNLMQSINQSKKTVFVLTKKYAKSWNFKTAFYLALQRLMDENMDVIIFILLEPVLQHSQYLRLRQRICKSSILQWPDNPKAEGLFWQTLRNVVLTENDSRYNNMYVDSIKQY
Protocol: as §1, §2

SMILES | IC50 (human TLR9) [nM] | IC50 (human TLR7) [nM] | IC50 (human TLR8) [nM]
COc1ccc(-c2nc3c(C)cc(-c4ccc(N5CC6(CN(CC(C)C)C6)C5)cc4)nc3n2C)cc1OC [Example 64, 2-(3,4-dimethoxyphenyl)-5-(4-(6-isobutyl-2,6-diazaspiro[3.3]heptan-2-yl)phenyl)-3,7-dimethyl-3H-imidazo[4,5-b]pyridine] | 1400 | 6300 | 9800
Cc1cc(C2CCN(C3CC4CCC(C3)N4CC(C)C)CC2)nc2c1nc(-c1ccc(S(C)(=O)=O)cc1)n2C (single isomer, unassigned) [Example 28, 5-(1-(8-isobutyl-8-azabicyclo[3.2.1]octan-3-yl)piperidin-4-yl)-3,7-dimethyl-2-(4-(methylsulfonyl)phenyl)-3H-imidazo[4,5-b]pyridine] | 79 | 1400 | > 50000
COc1ccc(-c2nc3c(C)cc(-c4ccc(N5CCN(C(C)C)CC5)cc4)nc3n2C)cc1OC [Example 10, 2-(3,4-dimethoxyphenyl)-5-(4-(4-isopropylpiperazin-1-yl)phenyl)-3,7-dimethyl-3H-imidazo[4,5-b]pyridine] | 750 | 1900 | 17000
Cc1cc(-c2ccc(N3CCN(CC(C)C)CC3)cc2)nc2c1nc(-c1ccc(S(C)(=O)=O)cc1)n2C [Example 8, 5-(4-(4-isobutylpiperazin-1-yl)phenyl)-3,7-dimethyl-2-(4-(methylsulfonyl)phenyl)-3H-imidazo[4,5-b]pyridine] | 1700 | > 50000 | > 50000
Cn1c(-c2ccc(S(C)(=O)=O)cc2)nc2ccc(-c3ccc(N4CCC5(CC4)CN(CC(C)(C)O)C5)cc3)nc21 [Example 63, 2-methyl-1-(7-(4-(3-methyl-2-(4-(methylsulfonyl)phenyl)-3H-imidazo[4,5-b]pyridin-5-yl)phenyl)-2,7-diazaspiro[3.5]nonan-2-yl)propan-2-ol] | 550 | 4200 | 44000
CC(C)N1CCN(c2ccc(-c3cnc4nc(-c5ccc(S(C)(=O)=O)cc5)n(C5CC5)c4c3)cc2)CC1 [Example 51, 1-cyclopropyl-6-(4-(4-isopropylpiperazin-1-yl)phenyl)-2-(4-(methylsulfonyl)phenyl)-1H-imidazo[4,5-b]pyridine] | 340 | 2700 | 4200
CC(C)N1CCN(c2ccc(-c3ccc4nc(-c5ccc(S(C)(=O)=O)cc5)n(C5CC5)c4n3)cc2)CC1 [Example 54, 3-cyclopropyl-5-(4-(4-isopropylpiperazin-1-yl)phenyl)-2-(4-(methylsulfonyl)phenyl)-3H-imidazo[4,5-b]pyridine] | 760 | > 50000 | > 50000

Now those with a lower IC50 (human TLR9), led by results:

IC50 (human TLR9) [nM] | IC50 (human TLR7) [nM] | IC50 (human TLR8) [nM] | SMILES
42 | 4100 | > 50000 | Cc1cc(C2CCN(C3CCN(C4CCOCC4)CC3)CC2)nc2c1nc(-c1ccc(S(C)(=O)=O)cc1)n2C [Example 25, 3,7-dimethyl-2-(4-(methylsulfonyl)phenyl)-5-(1′-(tetrahydro-2H-pyran-4-yl)-[1,4′-bipiperidin]-4-yl)-3H-imidazo[4,5-b]pyridine]
52 | 250 | > 50000 | COc1cc(-c2nc3c(C)cc(C4CCN([C@H]5C[C@@H]6CN(CC7CC7)C[C@@H]6C5)CC4)nc3n2C)cn2ncnc12 [Example 43, 5-(1-((3aR,5s,6aS)-2-(cyclopropylmethyl)octahydrocyclopenta[c]pyrrol-5-yl)piperidin-4-yl)-2-(8-methoxy-[1,2,4]triazolo[1,5-a]pyridin-6-yl)-3,7-dimethyl-3H-imidazo[4,5-b]pyridine]
37 | 5700 | > 50000 | Cc1cc(C2CCN(C3CC4CCC(C3)N4C3CCOCC3)CC2)nc2c1nc(-c1ccc(S(C)(=O)=O)cc1)n2C (single isomer, unassigned) [Example 34, 3,7-dimethyl-2-(4-(methylsulfonyl)phenyl)-5-(1-(8-(tetrahydro-2H-pyran-4-yl)-8-azabicyclo[3.2.1]octan-3-yl)piperidin-4-yl)-3H-imidazo[4,5-b]pyridine]
73 | 480 | > 50000 | COCCN1C[C@H]2C[C@H](N3CCC(c4cc(C)c5nc(-c6ccc(OC)c(OC)c6)n(C)c5n4)CC3)C[C@H]2C1 [Example 41, 2-(3,4-dimethoxyphenyl)-5-(1-((3aR,5s,6aS)-2-(2-methoxyethyl)octahydrocyclopenta[c]pyrrol-5-yl)piperidin-4-yl)-3,7-dimethyl-3H-imidazo[4,5-b]pyridine]

Source: patent US20250177363A1, “SUBSTITUTED IMIDAZOPYRIDINYL COMPOUNDS USEFUL AS INHIBITORS OF TLR9” (Bristol-Myers Squibb Company, priority 2022, published 2025)
